Source: US20240209011A1, “HETEROAROMATIC PHOSPHONIUM SALTS FOR TREATING CANCER” (FLORATEK PHARMA S.A., priority 2021, published 2024)
pIC50: −log10 of the molar value. Marks after values point to notes of the source that are not given here.

Key:
[1] = system: pancreatic PDX; assay: Activity against pancreatic PDX; assay type: cell-based; details: pancreatic PDX growth; summary of Table 20
Method: PDX-derived cell cultures were obtained from tumors explanted from mice and isolated by mechanical and enzymatic dissociation. […] Cells were harvested and seeded in 96-wells plates at a density of 1.25 to 5×10^3 cells/well for cytotoxicity assays. Cells were incubated 48 h at 37° C. prior to addition of test molecules and vehicle (DMSO, 0.1%) at desired final concentrations. Cell viability was assessed before drugs' addition (To) and 5 days after test molecules addition by measuring ATP cell content using CellTiter-Glo® Luminescent Cell Viability Assay (Promega) according to the manufacturer's instructions. Luciferase activity was measured on a luminometer (PerkinElmer® EnVision™). Each concentration of compounds was tested in triplicate.
Viability was calculated as a percentage of ATP value compared to vehicle treated controls.
For PDX primary cell cultures, the tumour tissue was washed with PBS containing antibiotic-antimycotic and non-tumour tissue and necrotic tumour tissues were separated. The tumour tissue was transferred to a new dish and cut into 1-2 mm^3 fragments, resuspended in RPMI-1640 medium and centrifuged at 1,200 rpm for 6 min at room temperature. The pelleted material was resuspended with 15 mL of Tumour Cell Digestion Solution and incubated at 37° C. for 1 hour with agitation. Following further addition of media, centrifugation and passage through a […] cell strainer, the homogenous cell mixture was layered onto 15 mL of Ficoll-Paque PLUS in a 50 mL conical tube and centrifuged for 15 min at 1,600 rpm. The interface cells were collected, washed with media, separated by centrifugation at 1,200 rpm. The cell pellet was resuspended in serum free media supplemented with growth factors. 10,000 cells/wells were plated in a 96 well plate and incubated at 37° C., 5% CO2, 95% air and 100% relative humidity overnight. The cytotoxicity assay was conducted as above. IC50 values represent absolute IC50.

[2] = system: SCLC doxorubicin resistant cell line H69AR; assay: Cell viability assay (CellTiter-Blue/CellTiter-Glow); assay type: cell-based; details: Homo sapiens, absolute IC50, 72 h
Summary of the method: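 Readout: CellTiter-Blue (ex 570/em 600 nm) or CellTiter-Glo luminescence after 72 h compound exposure. 5–6 half-log concentrations, top 30 or 100 μM, duplicate/triplicate, DMSO <0.3%. IC50 = absolute, 4-parameter fit at T/C=50%.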

[3] = system: K562 CDX; assay: In vivo tumour inhibition of xenograft leukemia model K562; details: K562 CDX in NOG mice; for Optimal T/C (value): day 17 after tumour transplantation, median tumour volume treated/control; for tumour growth inhibition: i.p. daily, T/C at day 17 after tumour transplantation
Method: In vivo activity against a number of CDX were evaluated in various nude or SCID mice. Tumour cells were inoculated subcutaneous (s.c) into the mice flank. Mice were randomized into groups when tumours were around 100-200 mm^3. A vehicle control group (2.5-4% DMSO, 5% EtOH, 20% PEG200 in saline) was part of each experiment. Treatment was administered intraperitoneally (i.p.) 3 times a week or daily (qd).
Body weight was measured before each treatment and treatments of individual mice was paused, when the body weight loss was >15%. Tumor volumes were measured 2×/week. Mice were individually sacrificed, when the tumor volume reached the volume specified in the laboratory internal SOP.
The tumour inhibition growth was assessed as the optimal T/C, where T represents the median tumour volume of the treated group and C represents the median tumour volume of the control (vehicle) group. Statistical analysis was performed using two way RM ANOVA with p values […] considered statistically significant.
Test compounds were evaluated for the in vivo inhibition activity against the chronic myelogenous leukemia CDX in NOG mice. 1×10^7 cells were injected s.c. into the left flank at day 0. Mice were stratified into groups of 10 mice each with a mean tumor volume of 109±35 mm^3 and the treatment was administered i.p. daily.

Work on O=c1cc(-c2ccc(CCCC[P+](c3ccccc3)(c3ccccc3)c3ccccc3)cc2)oc2c3c(ccc12)OCO3.[Br-] [SND123, 4-[4-(6-oxo-[1,3]dioxolo[4,5-h]chromen-8-yl)phenyl]butyl-triphenylphosphonium bromide] yielded a pIC50 [1] of over 4.70 and a pIC50 [2] of 4.93.
CCNC(=O)Oc1ccc2c(=O)cc(-c3ccc(CCCC[P+](c4ccccc4)(c4ccccc4)c4ccccc4)cc3)oc2c1OC(=O)NCC.[Br-] [SND124, 4-[4-[7,8-Bis(ethylcarbamoyloxy)-4-oxo-chromen-2-yl]phenyl]-butyltriphenylphosphonium bromide] showed a pIC50 [1] of over 4.70.
For O=c1cc(-c2ccc(CCCC[P+](c3ccccc3)(c3ccccc3)c3ccccc3)cc2)oc2c(O)c(O)ccc12 [SND118, 4-[4-(7,8-dihydroxy-4-oxo-chromen-2-yl)phenyl]butyltriphenyl-phosphonium bromide], the “Weight loss (%)” value ([3]; 10 mg/kg/inj i.p. qd) was 8%, the “Optimal T/C (value)” value ([3]; 10 mg/kg/inj i.p. qd) was 58*** and the tumour growth inhibition [3] was “significantly inhibited tumour growth”.
In the case of COc1c(O)ccc2c(=O)cc(-c3ccc(CCCC[P+](c4ccccc4)(c4ccccc4)c4ccccc4)cc3)oc12.[Br-] [SND140, (4-(4-(7-hydroxy-8-methoxy-4-oxo-4H-chromen-2-yl)phenyl)butyl)triphenylphosphonium bromide], the “Weight loss (%)” value ([3]; 5 mg/kg/inj i.p. qd) was 5%, the “Optimal T/C (value)” value ([3]; 5 mg/kg/inj i.p. qd) was 69* and the tumour growth inhibition [3] was “significantly inhibited tumour growth”. For the same compound, the pIC50 [1] was over 4.70 and the pIC50 [2] was 4.84.
For CCNC(=O)Oc1ccc2c(=O)cc(-c3ccc(CCCC[P+](c4ccccc4)(c4ccccc4)c4ccccc4)cc3)oc2c1O.[Br-] [SND126A, 4-[4-[7-(Ethylcarbamoyloxy)-8-hydroxy-4-oxo-chromen-2-yl]phenyl]butyltriphenylphosphonium bromide], the pIC50 [1] was over 4.70.
